Experimental data taken from article PMC6835763, “Influence of Short Cationic Lipopeptides with Fatty Acids of Different Chain Lengths on Bacterial Biofilms Formed on Polystyrene and Hydrogel Surfaces” (Pharmaceutics, 2019).
≈ marks a conversion by molar mass, not a printed value. Where “and” joins values, the source holds several entries; their conditions need not be identical. Equal values may be shown once. Read-outs that look alike come from different tables or passages of the source. Where a SMILES comes first, the peptide text is derived from it. Bridges are numbered along the chain shown (N, C = ends). Roman numbers before positions name the chains, in order. The star is where a group is joined. Lauroyl = CCCCCCCCCCCC(=O)*

Tests used:
Format in all cases: cell-based
[1] = test system: Staphylococcus epidermidis ATCC 14990
Experimental: (§1) The reference strains of gram-positive and gram-negative bacteria (Table 2) were obtained from the Polish Collection of Microorganisms (Polish Academy of Science, Wroclaw, Poland). The microorganisms were cultured in Muller Hinton Broth II (MHB II, Biocorp, Warsaw, Poland), overnight, at 37 °C. The MICs of synthetic lipopeptides and conventional antimicrobials were determined using the broth microdilution method according to the Clinical and Laboratory Standard Institute (CLSI) guidelines on reference strains. […] The PS were incubated under aerobic conditions at 37 °C for 18 h. The MIC (μg/mL) was assumed as the lowest concentration of the compound that inhibited the growth of the microorganisms. All experiments were performed in triplicate and included the growth and sterility controls.

[2] = test system: Staphylococcus aureus ATCC 25923
Experimental: as §1

[3] = test system: Escherichia coli ATCC 25922
Experimental: as §1

[4] = test system: Pseudomonas aeruginosa ATCC 9027
Experimental: as §1

[5] = test system: Enterococcus faecalis ATCC 29212
Experimental: as §1

[6] = test system: Staphylococcus epidermidis ATCC 14990; assay: MBFIC assay (biofilm formation inhibition, resazurin); conditions: for MBFIC S. epidermidis, CL: contact lenses (CL, Etafilcon A hydrogel) in 24-well plates; for MBFIC S. epidermidis, CL / MBFIC S. epidermidis, PS: ca. 5 × 10^8 CFU/mL in MHB II, 37 °C, 18 h, resazurin, visual, triplicate; for MBFIC S. epidermidis, PS: polystyrene plates (PS), 96-well; for concentrations inhibiting formation of SE biofilm (MBFIC range): range over PS and CL
Experimental: (§2) To determine the inhibitory effect of antimicrobials on the formation of biofilm on hydrophobic surfaces, the bacterial suspensions of strains (initial inoculum of ca. 5 × 10^8 CFU/mL in MHB II medium supplemented with antimicrobials) were cultured on 96-well PS at 37 °C for 18 h under aerobic conditions. After incubation, the suspensions were aspirated, and the wells were rinsed three times with sterile phosphate buffer PBS (AppliChem, Darmstadt, Germany) in order to remove the planktonic cells. Resazurin (final concentration per sample = 0.005%) was applied as a cell viability reagent for reading the results. In contact with the living cells, the dye is metabolized by bacterial dehydrogenases, resulting in a reduction of blue resazurin to pink resorufin. All assays were performed in triplicate and included the growth controls (positive controls: bacterial suspensions without antimicrobials) and the sterility controls (negative controls: a sterile MBH medium). After 1h of incubation, a visual evaluation of results was made. […] In a preliminary study, it was established that the application of lipopeptides at a concentration found active from visual evaluation caused the reduction of bacterial metabolism to approximately 10% (or less) of the positive control once the results were evaluated with a spectrophotometer. After 1 h of incubation with the dye, absorbance was measured at 570 and 600 nm using a microplate reader (Thermo Fisher Scientific, Waltham, MA, USA). The metabolic activity of bacteria in the samples was measured according to the formula presented in the previous paper.
(§3) The MBFIC assay with CL was applied in order to access the influence of lipopeptides on the biofilm formation on hydrogel surfaces. The entire sterile CL (1-Day Acuvue Moist, containing Etafilcon A., purchased from Johnson & Johnson (Vision Care, Jacksonsville, FL, USA), were placed in 24-well PS (Orange Scientific, Braine-l’ Alleud, Belgium) and the MBFICs were determined according to the above protocol.

[7] = test system: Proteus mirabilis PCM 543; assay: as above; conditions: ca. 5 × 10^8 CFU/mL in MHB II, 37 °C, 18 h, visual, triplicate; for MBFIC P. mirabilis, CL: contact lenses (CL, Etafilcon A hydrogel) in 24-well plates; for MBFIC P. mirabilis, PS: polystyrene plates (PS), 96-well
Experimental: as §2, §3

[8] = test system: Staphylococcus aureus ATCC 25923; assay: as above; conditions: ca. 5 × 10^8 CFU/mL in MHB II, 37 °C, 18 h, resazurin, visual, triplicate; for MBFIC S. aureus, CL: contact lenses (CL, Etafilcon A hydrogel) in 24-well plates; for MBFIC S. aureus, PS: polystyrene plates (PS), 96-well
Experimental: as §2, §3

[9] = test system: Escherichia coli ATCC 25922; assay: as above; conditions: ca. 5 × 10^8 CFU/mL in MHB II, 37 °C, 18 h, visual, triplicate; for MBFIC E. coli, CL: contact lenses (CL, Etafilcon A hydrogel) in 24-well plates; for MBFIC E. coli, PS: polystyrene plates (PS), 96-well
Experimental: as §2, §3

[10] = test system: Pseudomonas aeruginosa ATCC 9027; assay: as above; conditions: ca. 5 × 10^8 CFU/mL in MHB II, 37 °C, 18 h, visual, triplicate; for MBFIC P. aeruginosa, CL: contact lenses (CL, Etafilcon A hydrogel) in 24-well plates; for MBFIC P. aeruginosa, PS: polystyrene plates (PS), 96-well
Experimental: as §2, §3

[11] = test system: Enterococcus faecalis ATCC 29212; assay: as above; conditions: ca. 5 × 10^8 CFU/mL in MHB II, 37 °C, 18 h, visual, triplicate; for MBFIC E. faecalis, CL: contact lenses (CL, Etafilcon A hydrogel) in 24-well plates; for MBFIC E. faecalis, PS: polystyrene plates (PS), 96-well
Experimental: as §2, §3

[12] = test system: Staphylococcus epidermidis ATCC 14990; remark: listed apart in the source
Experimental: (§4) The biofilms of bacteria associated with the biofilm-related infections were cultured on 96-well flat bottom PS and on CL placed in 24-well plates. The bacteria at initial inoculums of 5 × 10^8 CFU/mL in MHB II were added to the plates and incubated at 37 °C under aerobic conditions. After 24 h of incubation, all cultures were rinsed three times with PBS and fresh medium was added. Subsequently, the obtained biofilm cultures were exposed to solutions of antimicrobials applied at graded concentrations ranging from 1 to 512 μg/mL for 24 h at 37 °C. The anti-biofilm activity of antimicrobials was visualized by resazurin (final concentration per sample = 0.005%) in the same way as in the MBFIC assay. All experiments were performed in triplicate and included growth controls (positive control: bacterial suspension without antimicrobials) and sterility controls (negative controls: sterile MBH II medium).

[13] = test system: Proteus mirabilis PCM 543
Experimental: as §4

[14] = test system: Staphylococcus aureus ATCC 25923; remark: listed apart in the source
Experimental: as §4

[15] = test system: Escherichia coli ATCC 25922; remark: listed apart in the source
Experimental: as §4

[16] = test system: Pseudomonas aeruginosa ATCC 9027; remark: listed apart in the source
Experimental: as §4

[17] = test system: Enterococcus faecalis ATCC 29212; remark: listed apart in the source
Experimental: as §4

[18] = test system: Proteus mirabilis PCM 543; conditions: MHB II, ca. 5 × 10^6 CFU/mL, 96-well PS, 1–512 μg/mL, 37 °C, 18 h, triplicate
Experimental: as §1

[19] = MHB II, ca. 5 × 10^6 CFU/mL, 96-well PS, 1–512 μg/mL, 37 °C, 18 h, triplicate
[20] = 24 h biofilm on 96-well flat bottom PS, 5 × 10^8 CFU/mL in MHB II, exposure 1–512 μg/mL for 24 h at 37 °C, resazurin, triplicate
[21] = 24 h biofilm on contact lenses (CL) in 24-well plates, 5 × 10^8 CFU/mL in MHB II, exposure 1–512 μg/mL for 24 h at 37 °C, resazurin, triplicate

## CCCCCCCCCCCC(=O)N[C@@H](CCCCN)C(=O)N[C@@H](CCCCN)C(=O)N[C@@H](CSSC[C@H](NC(=O)[C@H](CCCCN)NC(=O)[C@H](CCCCN)NC(=O)CCCCCCCCCCC)C(N)=O)C(N)=O [Lipopeptide 1, C12-KKC-NH2] (I: Lauroyl-Lys-Lys-Cys-NH2 / II: Lauroyl-Lys-Lys-Cys-NH2; disulfide I:3-II:3)
[1]; ATCC 14990, 18 h
  MIC S. epidermidis: 2 µg/mL (≈ 1.79 µM)
[2]; ATCC 25923, 18 h
  MIC S. aureus: 8 µg/mL (≈ 7.17 µM)
[3]; ATCC 25922, 18 h
  MIC E. coli: 16 µg/mL (≈ 14.3 µM)
[4]; ATCC 9027, 18 h
  MIC P. aeruginosa: 32 µg/mL (≈ 28.7 µM)
[5]; ATCC 29212, 18 h
  MIC E. faecalis: 4 µg/mL (≈ 3.59 µM)
[6]
  MBFIC S. epidermidis, CL: 16 µg/mL
  MBFIC S. epidermidis, PS: 8 µg/mL
  concentrations inhibiting formation of SE biofilm (MBFIC range): 8 to 16 µg/mL
[7]
  MBFIC P. mirabilis, CL: >512/>512 μg/mL
  MBFIC P. mirabilis, PS: >512/>512 μg/mL
[8]
  MBFIC S. aureus, CL: 32/32 μg/mL
  MBFIC S. aureus, PS: 32/32 μg/mL
[9]
  MBFIC E. coli, CL: 128/128 μg/mL
  MBFIC E. coli, PS: 128/128 μg/mL
[10]
  MBFIC P. aeruginosa, CL: 128 µg/mL
  MBFIC P. aeruginosa, PS: 512 µg/mL
[11]
  MBFIC E. faecalis, CL: 64 µg/mL
  MBFIC E. faecalis, PS: 16 µg/mL
[12]; ATCC 14990, 24 h
  MBEC S. epidermidis, CL: 128 µg/mL
[13]; PCM 543, 24 h
  MBEC P. mirabilis, CL: >512/>512 μg/mL
[14]; ATCC 25923, 24 h
  MBEC S. aureus, CL: 256 µg/mL
[15]; ATCC 25922, 24 h
  MBEC E. coli, CL: 256/256 μg/mL
[16]; ATCC 9027, 24 h
  MBEC P. aeruginosa, CL: 256 µg/mL
[17]; ATCC 29212, 24 h
  MBEC E. faecalis, CL: 128 µg/mL

## (C10)2-KKKK-NH2 [Lipopeptide 9]
[1]; [19]
  MIC S. epidermidis: 2 µg/mL
[18]
  MIC P. mirabilis: 512 µg/mL
[2]; [19]
  MIC S. aureus: 8 µg/mL
[3]; [19]
  MIC E. coli: 16 µg/mL
[4]; [19]
  MIC P. aeruginosa: 16 µg/mL
[5]; [19]
  MIC E. faecalis: 16 µg/mL
[6]
  MBFIC S. epidermidis, CL: 16 µg/mL
  MBFIC S. epidermidis, PS: 8 µg/mL
  concentrations inhibiting formation of SE biofilm (MBFIC range): 8 to 16 µg/mL
[7]
  MBFIC P. mirabilis, CL: 512/512 μg/mL
  MBFIC P. mirabilis, PS: 512/512 μg/mL
[8]
  MBFIC S. aureus, CL: 16 µg/mL
  MBFIC S. aureus, PS: 8 µg/mL
[9]
  MBFIC E. coli, CL: 64 µg/mL
  MBFIC E. coli, PS: 128 µg/mL
[10]
  MBFIC P. aeruginosa, CL: 64 μg/mL and 64/64 μg/mL
  MBFIC P. aeruginosa, PS: 64 μg/mL and 64/64 μg/mL
[11]
  MBFIC E. faecalis, CL: 64/64 μg/mL
  MBFIC E. faecalis, PS: 64/64 μg/mL
[12]; [20]
  MBEC S. epidermidis, PS: 16 µg/mL
[12]; [21]
  MBEC S. epidermidis, CL: 64 µg/mL
[13]; [20]
  MBEC P. mirabilis, PS: >512/>512 μg/mL
[13]; [21]
  MBEC P. mirabilis, CL: >512/>512 μg/mL
[14]; [20]
  MBEC S. aureus, PS: 64 µg/mL
[14]; [21]
  MBEC S. aureus, CL: 128 µg/mL
[15]; [20]
  MBEC E. coli, PS: 64 µg/mL
[15]; [21]
  MBEC E. coli, CL: 128 µg/mL
[15]; range over PS and CL
  concentrations eliminating the EC biofilm (MBEC range): 64 to 128 µg/mL
[16]; [20]
  MBEC P. aeruginosa, PS: 512 µg/mL
[16]; [21]
  MBEC P. aeruginosa, CL: 256 µg/mL
[17]; [20]
  MBEC E. faecalis, PS: 32 µg/mL
[17]; [21]
  MBEC E. faecalis, CL: 128 µg/mL
